In patent US20260085340A1, “METHOD FOR SINGLE CELL ANTIMICROBIAL SUSCEPTIBILITY TESTING IN A SUB-DOUBLING TIME” (The Penn State Research Foundation, priority 2022, published 2026):
Converted amounts (≈) assume the structure as drawn. “Also recorded” adds a separate entry of the source. Where two headings read alike, the source gives them in different places.

Legend:
[1] = system: clinical samples of KP (VA_1 and VA_2); assay: MorphoAST MIC prediction with Random Forest regressor (concentration differential) from single cell imaging; type: cell-based, Klebsiella pneumoniae; conditions: for MIC: Klebsiella pneumoniae
Protocol: (§1) We developed a non-limiting example machine learning workflow for rapid AST in a sub-doubling time of the bacteria. The MorphoAST workflow started with imaging of individual bacteria under various antimicrobial concentrations (FIG. 1A). Cells were grown to log phase and treated with varying concentrations of meropenem. Cells without any antimicrobials were imaged in the same manner as controls for the experiment. Live bacteria were mounted on an agarose pad to minimize cell movement due to cell motility and Brownian motion. Time-lapse images were taken every 5 minutes. Images were aligned to match the location of individual cells at each frame and then subject to MicrobeJ analysis for extracting morphological features. A total of 21 parameters (Table 2) describing the cellular dimension and orientation were generated. The data were analyzed either fitting with an exponential function to extract the feature changing rates (FIG. 1B) or normalized against the untreated control to extract the feature differentials (FIG. 1C). The data were applied to train and validate machine learning classifiers to predict the antimicrobial response (FIG. 1D) and regressors to predict the MIC of the bacterial strain against the antimicrobial (FIG. 1E).
We further evaluated the use of the concentration differential data for MIC prediction. A Random Forest regressor was trained from a total of 39,135 cells across the concentrations. […] The Random Forest regressor predicted the MIC in the 5-fold cross-validated training dataset with an RMSE of 0.8, MAE of 0.2, and an R^2 of 0.93. The performance of the model was assessed against 5 unseen KP strains, which comprised 6,067 cells. The experimental MIC and predicted MIC of the 5 unseen strains based on the Random Forest regressor are compared in FIG. 9B. […] The predicted and experimentally reported MIC labels were also compared. Based on the predicted MIC for each strain, the model correctly predicted 100% (2/2) of the susceptible and intermediate (1/1) bacteria in as few as 30 minutes. The performance of the model increased with the antimicrobial exposure time and achieved 100% CA with 0% ME and 0% VME in 50 minutes. We then tested the model performance in predicting the MIC for individual cells within each population of the unseen strains tested (FIG. 9C). While there is heterogeneity in calls for individual cells from a single population, ˜79.9% of cells from 3/5 strains tested (KP 003, KP_139, and KP_U3) had predicted MICs within one-two fold dilution from the experimental MIC after 20 minutes of antimicrobial exposure. After 50 minutes of exposure, ˜85.1% of all cells from 5/5 tested strains had predicted MICs within one-two fold dilution from experimental MIC.
(§2) In addition to validation against unseen strains, the model was tested against imaging data from two clinical samples of KP obtained from patients visiting the VA (Palo Alto) with urinary tract infections (FIG. 9D-E). The experimental MICs for these clinical samples (VA_1 and VA_2) was 0.5 μg/mL, i.e., susceptible. […] When the incubation time was increased to 50 minutes, both strains were predicted to have a mode MIC of 1 μg/mL which accurately classifies both clinical isolates as susceptible with an MIC within one-two fold dilution from the experimental MIC resulting.

[2] = system: clinical samples of KP (VA_1 and VA_2); assay: Experimental MIC of clinical samples of KP from patients with urinary tract infections; type: cell-based, Klebsiella pneumoniae
Protocol: as §2

[3] = system: Klebsiella pneumoniae isolates; conditions: cited from earlier work
Klebsiella pneumoniae = assay: Time-lapse single cell imaging of K. pneumoniae treated with meropenem (cell division, morphology); type: cell-based; conditions: for bulging or protrusion around the center of the cell: 5 μg/mL meropenem, early time points
Protocol: Klebsiella pneumoniae isolates (listed in Table 1 below) from the CDC & FDA Antimicrobial Resistance (AR) bank and American Type Culture Collective (ATCC) were grown in Mueller Hinton Broth (MHB) at 37° C. overnight. The next day, cells were sub-cultured in fresh MHB media for three hours (growth phase) to a density equivalent to OD600=0.5. Bacteria cells (10 μL) were treated with 10 μL meropenem at varying final concentrations of 0, 0.05, 0.5, 5, and 50 μg/mL to ascertain the physiological responses of cells. A subset of these isolates was treated with finer range of antimicrobial concentrations (0.02, 0.04, 0.016, 0.032, 0.064, 0.125, 0.5, 1, 2 μg/mL) to train the algorithm for quantitative prediction of MIC. The MICs of the isolates were obtained from the CDC and independently confirmed using the broth microdilution method according to the CDC guideline.
Bacteria cells and meropenem in liquid media are briefly vortexed prior to mounting on 1% (v/v) UltraPure agarose pad (10×20 mm, Invitrogen) on a microslide covered with a glass coverslip (#1.5, 22×30 mm). Bacteria imaging was performed using a Nikon Ti2-E inverted microscope equipped with a DS-Qi2 CMOS camera and an Okolab stage-top temperature control chamber (37° C., 5% CO2). Images were acquired using a Nikon CFI Plan Apochromat 1 DM 100× oil objective lens and an external Phase Contrast (Ph3) module. Each isolate was observed over a period of 75 minutes (15-90 minutes after mixing with the antimicrobial).
Time-series images were stacked and corrected for shifts in the time series using the Template Matching and Slice Alignment ImageJ plugin. Each individual stack was then analyzed using the MicrobeJ plugin for ImageJ. The plugin, designed for the detection and analysis of bacterial cells, uses computer vision algorithms to automatically identify a cell and determine a suite of morphological features, such as its area, length, circularity, and perimeter (see Table 2 below). The tracking data were summarized as a table and exported as a comma-separated values (.csv) file for further analysis.
as §1

MIC ([1]; 20 min, clinical sample VA_1, within 20 minutes of meropenem treatment, read-out: predicted MIC): 8 µg/mL (≈ 20.9 µM)
MIC ([1]; 20 min, clinical sample VA_2, within 20 minutes of meropenem treatment, read-out: predicted MIC): 7 µg/mL (≈ 18.3 µM)
MIC ([1]; 50 min, clinical sample VA_1, 50 minutes incubation, read-out: predicted mode MIC): 1 µg/mL (≈ 2.61 µM)
MIC ([1]; 50 min, clinical sample VA_2, 50 minutes incubation, read-out: predicted mode MIC): 1 µg/mL (≈ 2.61 µM)
MIC ([2]; Klebsiella pneumoniae, clinical sample VA_1): 0.5 µg/mL
susceptibility category from experimental MIC ([2]; clinical sample VA_1): susceptible
experimental MIC ([2]; clinical sample VA_2): 0.5 µg/mL
susceptibility category from experimental MIC ([2]; clinical sample VA_2): susceptible
SMILES: C[C@@H](O)[C@H]1C(=O)N2C(C(=O)O)=C(S[C@@H]3CN[C@H](C(=O)N(C)C)C3)[C@H](C)[C@H]12 [Meropenem, meropenem]
predicted susceptibility category ([1]; clinical sample VA_1, 50 minutes incubation): susceptible
predicted susceptibility category ([1]; clinical sample VA_1, within 20 minutes of meropenem treatment): resistant
predicted susceptibility category ([1]; clinical sample VA_2, 50 minutes incubation): susceptible
predicted susceptibility category ([1]; clinical sample VA_2, within 20 minutes of meropenem treatment): resistant
MIC of the strain ([3]; K. pneumoniae KP0142): 2 µg/mL
Meropenem MIC ([3]; KP strain AR Bank# 0010): 1 µg/mL
Meropenem MIC ([3]; KP strain AR Bank# 0016): < 0.5 µg/mL
Meropenem Susc. ([3]; KP strain AR Bank# 0016): Susceptible
Meropenem MIC ([3]; KP strain AR Bank# 0028): < 0.5 µg/mL
Meropenem MIC ([3]; KP strain AR Bank# 0120): > 8 µg/mL
Meropenem MIC ([3]; KP strain AR Bank# 0140): 2 µg/mL
Meropenem MIC ([3]; KP strain AR Bank# 0142): 2 µg/mL
Meropenem Susc. ([3]; KP strain AR Bank# 0142): Intermediate
Meropenem MIC ([3]; KP strain AR Bank# 0143): > 8 µg/mL
Meropenem Susc. ([3]; KP strain AR Bank# 0143): Resistant
Meropenem MIC ([3]; KP strain AR Bank# 0147): 0.5 µg/mL
Meropenem MIC ([3]; KP strain AR Bank# 0153): > 8 µg/mL
Meropenem MIC ([3]; KP strain AR Bank# 0160): > 8 µg/mL
Meropenem MIC ([3]; KP strain ATCC 700603): ≤ 0.25 µg/mL
Meropenem MIC ([3]; KP strain ATCC BAA-1705): > 8 µg/mL
Bulging of the cells (Klebsiella pneumoniae; K. pneumoniae KP0142, 50 μg/ml meropenem versus 0 μg/ml): observed only in the meropenem case; also recorded: only observed in the meropenem case
cell division (Klebsiella pneumoniae; K. pneumoniae KP0142, 50 μg/ml meropenem, time-lapse imaging): completely inhibited
bulging or protrusion around the center of the cell (Klebsiella pneumoniae; KP0016 (susceptible)): noticeable ‘bulging’ or protrusion around the center of the cell
bulging or protrusion around the center of the cell (Klebsiella pneumoniae; KP0142 (intermediate)): noticeable ‘bulging’ or protrusion around the center of the cell
bulging or protrusion around the center of the cell (Klebsiella pneumoniae; KP0143 (resistant)): not observed
